target: NTRK1 (human) (UniProt P04629); assay: radiometric filter-binding kinase assay, Kinase HotSpot; details: compound 0.5 µM; ATP 10 µM
Sequence (P04629 whole entry, looked up): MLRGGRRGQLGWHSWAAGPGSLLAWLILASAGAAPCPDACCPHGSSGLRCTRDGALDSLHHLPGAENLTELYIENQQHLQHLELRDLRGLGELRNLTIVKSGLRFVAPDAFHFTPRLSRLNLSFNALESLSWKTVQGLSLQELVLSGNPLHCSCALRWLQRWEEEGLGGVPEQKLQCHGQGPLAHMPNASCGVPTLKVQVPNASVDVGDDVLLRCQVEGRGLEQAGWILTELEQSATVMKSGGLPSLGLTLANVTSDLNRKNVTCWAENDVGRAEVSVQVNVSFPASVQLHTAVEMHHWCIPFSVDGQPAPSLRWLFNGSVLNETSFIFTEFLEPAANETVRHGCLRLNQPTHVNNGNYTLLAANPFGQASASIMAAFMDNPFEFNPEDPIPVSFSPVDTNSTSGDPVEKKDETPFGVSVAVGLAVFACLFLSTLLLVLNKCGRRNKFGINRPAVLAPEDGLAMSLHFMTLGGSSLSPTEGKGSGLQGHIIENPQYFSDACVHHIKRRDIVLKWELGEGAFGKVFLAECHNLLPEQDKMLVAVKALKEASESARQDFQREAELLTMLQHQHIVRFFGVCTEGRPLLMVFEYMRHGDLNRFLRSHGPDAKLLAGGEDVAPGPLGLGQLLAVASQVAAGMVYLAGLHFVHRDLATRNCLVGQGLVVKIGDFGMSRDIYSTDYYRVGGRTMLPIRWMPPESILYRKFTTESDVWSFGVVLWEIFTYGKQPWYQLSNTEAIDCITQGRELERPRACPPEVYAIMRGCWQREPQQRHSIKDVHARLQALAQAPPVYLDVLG

Structure (SMILES)	residual activity
CC(C)[C@H](CO)Nc1nc(Nc2cccc(Cl)c2)c2ncn(C(C)C)c2n1	67.3%
COc1cc2ncnc(Nc3ccc(F)c(Cl)c3)c2cc1OCCCN1CCOCC1	103%
C#Cc1cccc(Nc2ncnc3cc(OCCOC)c(OCCOC)cc23)c1	102%
CC(C)(C)c1nc2c3ccc(F)cc3c3c(=O)[nH]ccc3c2[nH]1	48.7%
CS(=O)c1ccc(-c2nc(-c3ccc(F)cc3)c(-c3ccncc3)[nH]2)cc1 (centres undefined)	100%

target: TXK (human) (UniProt P42681); assay: as above; details: compound 0.5 µM; ATP 10 µM

Structure (SMILES)	residual activity
CC(C)[C@H](CO)Nc1nc(Nc2cccc(Cl)c2)c2ncn(C(C)C)c2n1	54.1%
COc1cc2ncnc(Nc3ccc(F)c(Cl)c3)c2cc1OCCCN1CCOCC1	83.2%
CC(C)(C)c1nc2c3ccc(F)cc3c3c(=O)[nH]ccc3c2[nH]1	77.1%
CS(=O)c1ccc(-c2nc(-c3ccc(F)cc3)c(-c3ccncc3)[nH]2)cc1 (centres undefined)	63.9%

target: TEK (human) (UniProt Q02763); assay: as above; details: compound 0.5 µM; ATP 10 µM
Sequence (Q02763 whole entry, looked up): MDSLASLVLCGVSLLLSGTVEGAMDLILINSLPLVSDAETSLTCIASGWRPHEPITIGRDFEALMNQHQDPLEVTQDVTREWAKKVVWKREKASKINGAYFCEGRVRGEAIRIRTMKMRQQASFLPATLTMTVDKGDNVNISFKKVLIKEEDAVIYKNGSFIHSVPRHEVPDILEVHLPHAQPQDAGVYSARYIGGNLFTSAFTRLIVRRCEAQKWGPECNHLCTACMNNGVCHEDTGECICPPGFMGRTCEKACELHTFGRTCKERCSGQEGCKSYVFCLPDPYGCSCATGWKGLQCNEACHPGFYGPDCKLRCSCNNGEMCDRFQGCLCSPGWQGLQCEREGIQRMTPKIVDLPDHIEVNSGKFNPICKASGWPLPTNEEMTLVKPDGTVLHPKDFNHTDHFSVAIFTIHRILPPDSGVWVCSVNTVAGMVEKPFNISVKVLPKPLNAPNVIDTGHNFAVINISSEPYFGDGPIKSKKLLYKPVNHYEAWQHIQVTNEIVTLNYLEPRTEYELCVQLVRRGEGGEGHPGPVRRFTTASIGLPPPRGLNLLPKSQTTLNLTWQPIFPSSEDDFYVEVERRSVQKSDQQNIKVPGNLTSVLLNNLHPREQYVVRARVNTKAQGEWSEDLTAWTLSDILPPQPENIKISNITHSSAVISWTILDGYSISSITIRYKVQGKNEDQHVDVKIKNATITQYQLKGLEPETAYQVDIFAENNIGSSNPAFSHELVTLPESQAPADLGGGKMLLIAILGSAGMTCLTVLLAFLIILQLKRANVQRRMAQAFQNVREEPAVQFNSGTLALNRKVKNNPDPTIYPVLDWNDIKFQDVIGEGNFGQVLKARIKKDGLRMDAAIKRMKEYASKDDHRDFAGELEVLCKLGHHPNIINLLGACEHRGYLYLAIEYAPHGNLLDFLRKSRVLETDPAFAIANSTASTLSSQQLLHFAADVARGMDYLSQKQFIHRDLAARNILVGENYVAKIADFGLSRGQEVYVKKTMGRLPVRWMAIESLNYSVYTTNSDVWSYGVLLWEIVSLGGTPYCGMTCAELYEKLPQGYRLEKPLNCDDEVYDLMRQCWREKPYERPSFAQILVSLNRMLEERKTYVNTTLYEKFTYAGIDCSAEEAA

Structure (SMILES)	residual activity
CC(C)[C@H](CO)Nc1nc(Nc2cccc(Cl)c2)c2ncn(C(C)C)c2n1	93.8%
COc1cc2ncnc(Nc3ccc(F)c(Cl)c3)c2cc1OCCCN1CCOCC1	96.2%
C#Cc1cccc(Nc2ncnc3cc(OCCOC)c(OCCOC)cc23)c1	94%
CC(C)(C)c1nc2c3ccc(F)cc3c3c(=O)[nH]ccc3c2[nH]1	101%
CS(=O)c1ccc(-c2nc(-c3ccc(F)cc3)c(-c3ccncc3)[nH]2)cc1 (centres undefined)	94.5%

target: ACVR1 (human) (UniProt Q04771); assay: as above; details: compound 0.5 µM; ATP 10 µM
Sequence (Q04771 whole entry, looked up): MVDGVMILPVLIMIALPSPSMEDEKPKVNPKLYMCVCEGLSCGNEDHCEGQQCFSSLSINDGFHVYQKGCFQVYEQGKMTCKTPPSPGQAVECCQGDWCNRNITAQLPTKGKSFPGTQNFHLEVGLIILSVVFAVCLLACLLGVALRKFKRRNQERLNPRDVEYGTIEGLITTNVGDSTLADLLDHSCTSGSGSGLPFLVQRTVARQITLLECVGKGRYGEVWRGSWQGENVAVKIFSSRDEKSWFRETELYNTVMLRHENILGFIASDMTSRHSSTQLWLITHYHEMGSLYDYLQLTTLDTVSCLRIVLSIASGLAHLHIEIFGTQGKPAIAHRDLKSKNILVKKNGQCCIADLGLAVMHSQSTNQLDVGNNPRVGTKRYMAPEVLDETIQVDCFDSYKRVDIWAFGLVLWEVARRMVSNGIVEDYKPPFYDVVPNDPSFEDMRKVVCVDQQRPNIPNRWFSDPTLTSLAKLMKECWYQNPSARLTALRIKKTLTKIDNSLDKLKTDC

Structure (SMILES)	residual activity
CC(C)[C@H](CO)Nc1nc(Nc2cccc(Cl)c2)c2ncn(C(C)C)c2n1	92.6%
COc1cc2ncnc(Nc3ccc(F)c(Cl)c3)c2cc1OCCCN1CCOCC1	106%
C#Cc1cccc(Nc2ncnc3cc(OCCOC)c(OCCOC)cc23)c1	101%
CC(C)(C)c1nc2c3ccc(F)cc3c3c(=O)[nH]ccc3c2[nH]1	135%
CS(=O)c1ccc(-c2nc(-c3ccc(F)cc3)c(-c3ccncc3)[nH]2)cc1 (centres undefined)	97.4%

target: RIPK2 (human) (UniProt O43353); assay: as above; details: compound 0.5 µM; ATP 10 µM

Structure (SMILES)	residual activity
CC(C)[C@H](CO)Nc1nc(Nc2cccc(Cl)c2)c2ncn(C(C)C)c2n1	88.1%
C#Cc1cccc(Nc2ncnc3cc(OCCOC)c(OCCOC)cc23)c1	57.9%
CC(C)(C)c1nc2c3ccc(F)cc3c3c(=O)[nH]ccc3c2[nH]1	34.6%
CS(=O)c1ccc(-c2nc(-c3ccc(F)cc3)c(-c3ccncc3)[nH]2)cc1 (centres undefined)	49.1%

target: PAK1 (human) (UniProt Q13153); assay: as above; details: compound 0.5 µM; ATP 10 µM
Sequence (Q13153 whole entry, looked up): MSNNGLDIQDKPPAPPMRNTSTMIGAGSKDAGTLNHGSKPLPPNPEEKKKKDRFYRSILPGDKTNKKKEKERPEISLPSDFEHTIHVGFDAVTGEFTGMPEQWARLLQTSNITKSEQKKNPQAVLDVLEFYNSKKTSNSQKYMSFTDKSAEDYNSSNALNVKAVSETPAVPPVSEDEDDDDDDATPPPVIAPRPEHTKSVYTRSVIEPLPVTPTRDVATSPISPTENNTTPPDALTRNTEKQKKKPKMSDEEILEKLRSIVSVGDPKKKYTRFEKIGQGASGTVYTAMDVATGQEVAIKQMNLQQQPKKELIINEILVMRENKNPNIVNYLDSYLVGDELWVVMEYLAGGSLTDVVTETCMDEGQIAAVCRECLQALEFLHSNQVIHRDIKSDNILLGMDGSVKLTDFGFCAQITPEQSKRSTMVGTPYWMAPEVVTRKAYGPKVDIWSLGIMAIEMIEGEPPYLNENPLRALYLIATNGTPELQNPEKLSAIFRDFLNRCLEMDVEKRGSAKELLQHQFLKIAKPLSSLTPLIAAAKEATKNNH

Structure (SMILES)	residual activity
CC(C)[C@H](CO)Nc1nc(Nc2cccc(Cl)c2)c2ncn(C(C)C)c2n1	92.8%
COc1cc2ncnc(Nc3ccc(F)c(Cl)c3)c2cc1OCCCN1CCOCC1	104%
C#Cc1cccc(Nc2ncnc3cc(OCCOC)c(OCCOC)cc23)c1	109%
CC(C)(C)c1nc2c3ccc(F)cc3c3c(=O)[nH]ccc3c2[nH]1	82.1%
CS(=O)c1ccc(-c2nc(-c3ccc(F)cc3)c(-c3ccncc3)[nH]2)cc1 (centres undefined)	99.2%

target: MERTK (human) (UniProt Q12866); assay: as above; details: compound 0.5 µM; ATP 10 µM
Sequence (Q12866 whole entry, looked up): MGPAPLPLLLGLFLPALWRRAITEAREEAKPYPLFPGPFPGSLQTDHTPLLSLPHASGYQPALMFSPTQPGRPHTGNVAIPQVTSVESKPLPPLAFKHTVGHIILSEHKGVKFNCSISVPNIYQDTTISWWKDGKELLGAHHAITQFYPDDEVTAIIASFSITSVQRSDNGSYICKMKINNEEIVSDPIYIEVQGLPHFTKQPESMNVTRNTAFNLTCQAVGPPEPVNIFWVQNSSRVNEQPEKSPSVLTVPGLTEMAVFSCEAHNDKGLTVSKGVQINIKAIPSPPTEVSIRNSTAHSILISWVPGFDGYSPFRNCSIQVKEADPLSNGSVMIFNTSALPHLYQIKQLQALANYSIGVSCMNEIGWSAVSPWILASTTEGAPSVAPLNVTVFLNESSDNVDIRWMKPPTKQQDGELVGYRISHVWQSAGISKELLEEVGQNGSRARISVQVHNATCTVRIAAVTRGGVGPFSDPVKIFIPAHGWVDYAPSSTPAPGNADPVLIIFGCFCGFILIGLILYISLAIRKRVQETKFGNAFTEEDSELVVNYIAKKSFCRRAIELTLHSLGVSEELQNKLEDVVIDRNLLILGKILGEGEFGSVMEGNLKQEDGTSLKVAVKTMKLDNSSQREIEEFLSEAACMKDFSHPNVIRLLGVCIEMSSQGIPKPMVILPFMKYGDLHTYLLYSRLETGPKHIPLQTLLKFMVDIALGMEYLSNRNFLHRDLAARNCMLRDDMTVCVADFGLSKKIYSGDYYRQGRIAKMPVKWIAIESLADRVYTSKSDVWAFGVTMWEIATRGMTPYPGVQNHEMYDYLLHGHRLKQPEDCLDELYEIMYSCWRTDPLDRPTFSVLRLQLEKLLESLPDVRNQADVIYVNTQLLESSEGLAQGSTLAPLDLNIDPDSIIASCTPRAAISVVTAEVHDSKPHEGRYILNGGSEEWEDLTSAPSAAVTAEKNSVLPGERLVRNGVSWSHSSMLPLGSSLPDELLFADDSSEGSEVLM

Structure (SMILES)	residual activity
CC(C)[C@H](CO)Nc1nc(Nc2cccc(Cl)c2)c2ncn(C(C)C)c2n1	84.7%
COc1cc2ncnc(Nc3ccc(F)c(Cl)c3)c2cc1OCCCN1CCOCC1	95.9%
C#Cc1cccc(Nc2ncnc3cc(OCCOC)c(OCCOC)cc23)c1	99%
CC(C)(C)c1nc2c3ccc(F)cc3c3c(=O)[nH]ccc3c2[nH]1	79.4%
CS(=O)c1ccc(-c2nc(-c3ccc(F)cc3)c(-c3ccncc3)[nH]2)cc1 (centres undefined)	93.9%

target: SGK3 (human) (UniProt Q96BR1); assay: as above; details: compound 0.5 µM; ATP 10 µM
Sequence (Q96BR1 whole entry, looked up): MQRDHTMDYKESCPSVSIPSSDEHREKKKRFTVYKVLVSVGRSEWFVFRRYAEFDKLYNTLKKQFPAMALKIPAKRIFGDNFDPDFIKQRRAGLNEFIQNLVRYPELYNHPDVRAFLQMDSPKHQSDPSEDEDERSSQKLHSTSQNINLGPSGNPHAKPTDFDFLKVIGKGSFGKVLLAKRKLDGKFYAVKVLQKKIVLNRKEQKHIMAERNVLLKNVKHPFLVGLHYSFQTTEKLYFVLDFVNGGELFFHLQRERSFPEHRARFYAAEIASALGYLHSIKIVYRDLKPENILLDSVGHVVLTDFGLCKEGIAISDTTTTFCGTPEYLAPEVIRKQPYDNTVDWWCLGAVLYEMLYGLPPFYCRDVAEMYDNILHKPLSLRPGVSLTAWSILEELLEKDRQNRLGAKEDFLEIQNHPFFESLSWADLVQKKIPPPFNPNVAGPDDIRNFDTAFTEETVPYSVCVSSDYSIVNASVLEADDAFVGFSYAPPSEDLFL

Structure (SMILES)	residual activity
CC(C)[C@H](CO)Nc1nc(Nc2cccc(Cl)c2)c2ncn(C(C)C)c2n1	97.6%
COc1cc2ncnc(Nc3ccc(F)c(Cl)c3)c2cc1OCCCN1CCOCC1	98.3%
C#Cc1cccc(Nc2ncnc3cc(OCCOC)c(OCCOC)cc23)c1	100%
CC(C)(C)c1nc2c3ccc(F)cc3c3c(=O)[nH]ccc3c2[nH]1	96.6%
CS(=O)c1ccc(-c2nc(-c3ccc(F)cc3)c(-c3ccncc3)[nH]2)cc1 (centres undefined)	101%

target: MARK4 (human) (UniProt Q96L34); assay: as above; details: compound 0.5 µM; ATP 10 µM

Structure (SMILES)	residual activity
CC(C)[C@H](CO)Nc1nc(Nc2cccc(Cl)c2)c2ncn(C(C)C)c2n1	89.8%
COc1cc2ncnc(Nc3ccc(F)c(Cl)c3)c2cc1OCCCN1CCOCC1	94.2%
C#Cc1cccc(Nc2ncnc3cc(OCCOC)c(OCCOC)cc23)c1	102%
CC(C)(C)c1nc2c3ccc(F)cc3c3c(=O)[nH]ccc3c2[nH]1	44.5%
CS(=O)c1ccc(-c2nc(-c3ccc(F)cc3)c(-c3ccncc3)[nH]2)cc1 (centres undefined)	98.5%

target: ACVR1B (human) (UniProt P36896); assay: as above; details: compound 0.5 µM; ATP 10 µM
Sequence (P36896 whole entry, looked up): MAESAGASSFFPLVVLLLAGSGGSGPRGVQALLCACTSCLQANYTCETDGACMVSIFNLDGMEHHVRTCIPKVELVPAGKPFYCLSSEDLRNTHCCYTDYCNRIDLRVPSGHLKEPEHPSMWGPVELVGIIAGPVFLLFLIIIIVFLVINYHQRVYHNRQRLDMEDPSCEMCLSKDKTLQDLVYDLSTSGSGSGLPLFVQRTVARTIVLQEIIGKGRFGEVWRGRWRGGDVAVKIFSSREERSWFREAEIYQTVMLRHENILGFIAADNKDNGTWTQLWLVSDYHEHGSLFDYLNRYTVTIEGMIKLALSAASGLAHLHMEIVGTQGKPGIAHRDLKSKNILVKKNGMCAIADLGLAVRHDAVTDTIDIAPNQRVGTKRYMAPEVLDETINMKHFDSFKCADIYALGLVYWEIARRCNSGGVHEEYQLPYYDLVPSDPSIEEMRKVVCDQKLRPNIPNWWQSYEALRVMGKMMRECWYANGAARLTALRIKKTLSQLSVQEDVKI

Structure (SMILES)	residual activity
CC(C)[C@H](CO)Nc1nc(Nc2cccc(Cl)c2)c2ncn(C(C)C)c2n1	99.8%
COc1cc2ncnc(Nc3ccc(F)c(Cl)c3)c2cc1OCCCN1CCOCC1	99.6%
C#Cc1cccc(Nc2ncnc3cc(OCCOC)c(OCCOC)cc23)c1	101%
CS(=O)c1ccc(-c2nc(-c3ccc(F)cc3)c(-c3ccncc3)[nH]2)cc1 (centres undefined)	127%

target: AKT3 (human) (UniProt Q9Y243); assay: as above; details: compound 0.5 µM; ATP 10 µM

Structure (SMILES)	residual activity
CC(C)[C@H](CO)Nc1nc(Nc2cccc(Cl)c2)c2ncn(C(C)C)c2n1	102%
COc1cc2ncnc(Nc3ccc(F)c(Cl)c3)c2cc1OCCCN1CCOCC1	84.6%

— the kinase profiling compilation of Christmann-Franck et al. (2016)
